Reference: PubChem BioAssay AID489035 (Sanford-Burnham Center for Chemical Genomics, 2010)
pIC50: −log10 of the molar value. Activity calls are given as the source filed them. How the calls were made is not given here.

Each compound was assayed on Jurkat NF-kB reporter, TCR-induced, luciferase luminescence (assay: T-cell NF-kB luciferase reporter inhibition – Jurkat cells, luminescence, dose response (AID 489035)).

SMILES	IC50	pIC50
Cc1cccc(OCCNC(=O)c2ccc(Cl)c(S(=O)(=O)NCc3cccnc3)c2)c1	> 80 µM (inactive)	–
COc1ccc(/C=N/NC(=O)COc2ccccc2-c2ccccc2)cc1	37.9 µM (inactive)	–
COc1ccc(NC(=O)/C(Cl)=C(/Cl)S(=O)Cc2ccccc2Cl)cn1 (stereo not given)	–	6.19
CCn1c2ccccc2c2cc(NC(=O)c3cc(OC)cc(OC)c3)ccc21	> 80 µM (inactive)	–
CC1Cc2cc(-c3csc(NC(=O)Cc4cccs4)n3)ccc2N1S(C)(=O)=O (stereo not given)	–	5.27
CC(Oc1ccc(Cl)cc1Cl)c1nc(-c2ccc(NC(=O)c3ccncc3)cc2)no1 (stereo not given)	> 80 µM (inactive)	–
Nc1nc(-c2ccccc2)cc(N2CCCCC2)n1	> 80 µM (inactive)	–
COc1cccc(CN(C)C(=O)c2ccc(OCC(=O)Nc3cccc(C(F)(F)F)c3)c(OC)c2)c1	40.5 µM (inactive)	–
CCn1c2ccccc2c2cc(NC(=O)c3cc(OC)c(OC)c(OC)c3)ccc21	76.2 µM (inactive)	–
O=C(N/N=C\c1c(O)ccc2ccccc12)c1ccc(S(=O)(=O)N2CCCCC2)cc1	–	6.01
O=C(c1ccc(Br)cc1)c1cc([N+](=O)[O-])ccc1N1CCOCC1	64.3 µM (inactive)	–
Cc1cc(C)c2nc(C)cc(N/N=C/c3ccc(O)cc3)c2c1	–	5.54
Clc1cccc(Cl)c1/C=N/Nc1c(Cl)cncc1Cl	> 80 µM (inactive)	–
Cc1ccc(N(C)S(=O)(=O)c2ccc(-c3cnc(C4CC4)o3)cc2)cc1	44.6 µM (inactive)	–
c1ccc(-c2noc(-c3ccc4ccccc4c3)n2)nc1	–	6.34
COCCn1c(C)cc(C2=NNC(=Nc3ccccc3F)SC2)c1C	64.3 µM (inactive)	–
Cc1ccc2cccc(NS(=O)(=O)c3ccccc3)c2n1	–	6.01
c1ccc2c(c1)CCN(c1ncnc3c1[nH]c1ccccc13)C2	24.2 µM (inactive)	–
CCCCCN1C=CC(=C2C(=O)c3ccccc3C2=O)C=C1	–	6.43
COc1cc(C(=O)N2CCN(c3cc(Cl)ccc3Cl)CC2)cc(OC)c1OC	24.5 µM (inactive)	–
Cn1c2c(c(=O)n(C)c1=O)C(C(F)(F)F)(C(F)(F)F)N=C(c1ccc(Cl)cc1)N2	> 80 µM (inactive)	–
CCOCCCNC(=O)c1cc2c(=O)n3cccc(C)c3nc2n1C	> 80 µM (inactive)	–
COc1ccccc1-c1nnc2n1N=C(c1ccc(O)c(O)c1)CS2	–	5.13
COc1ccccc1NC(=O)Cn1nnc(C(=O)NCc2cccs2)c1N	> 80 µM (inactive)	–
COc1ccc(Nc2ncnc3ccc(Br)cc23)c(OC)c1	22 µM (inactive)	–

SMILES	IC50	pIC50
O=C(c1ccc(Cl)cc1)c1cc([N+](=O)[O-])ccc1N1CCOCC1	> 80 µM (inactive)	–
Nc1nc(Cl)cc(N2CCC(c3cc(-c4ccc(Cl)cc4)n[nH]3)CC2)n1	–	5.73
Cc1ccc2c(c1)Oc1ccc(NC(=O)CCl)cc1C(=O)N2	–	5.28
Cc1ccc(Nc2nc(-c3c(C)nc4ncccn34)cs2)cc1	–	4.73
CCOc1ccc2c(c1)OC(c1ccc(C)cc1)(C(F)(F)F)NC2=O (stereo not given)	> 80 µM (inactive)	–
Cc1nc(Sc2nnnn2C)c2c3c(sc2n1)CCC3	–	5.28
CCOc1ccc(NC(=O)c2cc3c(C)nc4ccccc4c3o2)cc1	> 80 µM (inactive)	–
CCCCCCCCCCCCCCCC[n+]1ccc(C(N)=O)cc1	–	5.83
COc1ccc(/C=C/C(=O)c2cc(F)ccc2OC(=O)c2ccccc2)cc1OC	–	5.60
COc1cccc(N/C(N)=N/c2nc(CSc3ccccn3)cc(=O)[nH]2)c1	–	5.33
Cc1cc(/C=C2\Sc3ccccc3N2C)cc(C)[n+]1CC1CCCO1 (stereo not given)	–	4.72
CCc1ccc2nc(SCC(=O)Nc3ccccc3N3CCOCC3)c(C#N)cc2c1	32.4 µM (inactive)	–
O=C(Nc1nc(-c2ccccn2)cs1)c1ccc(Cl)s1	–	5.58
Brc1ccc2c(c1)C(C1=NCCN1)c1ccccc1CS2 (stereo not given)	> 80 µM (inactive)	–
Oc1ccc(Nc2nc3ccccc3nc2Nc2ccc(O)cc2)cc1	–	5.68
CCCCN=C[C@]12CCC(O)CC1(O)CCC1[C@@H]2CC[C@]2(C)[C@H](C3C=CC(=O)O3)CCC12O (stereo not given in full)	> 80 µM (inactive)	–
Cc1ccc(/C=C/c2ccc(N(C)C)cc2)[n+](C)c1	> 80 µM (inactive)	–
COc1cccc(N2CCN(C(=O)c3cn(Cc4ccccc4)nc3-c3cccnc3)CC2)c1	> 80 µM (inactive)	–
COc1ccc(S(=O)(=O)N2N=C(C)Oc3ccccc3C2=O)cc1	33 µM (inactive)	–
CN=c1scc(-c2cccs2)n1/N=C/c1ccccc1O	–	5.68
Cc1ccc(O)c(NC(=O)CCC2CCCCC2)c1	> 80 µM (inactive)	–
Cc1cc(C)c(CN2CCN(C(=O)Cn3cnc4c(OCc5ccccc5)ncnc43)CC2)c(C)c1	> 80 µM (inactive)	–
Cc1ccc(C)c(CSc2nc3[nH]ncc3c(=O)[nH]2)c1	39.2 µM (inactive)	–
Cc1ccc(Oc2ccc(OCC(=O)Nc3ccncc3)cc2)cc1	–	4.71
Cc1ccc(N/C(N)=N/c2nc(CSc3nnc(C)s3)cc(=O)[nH]2)c(C)c1	42.1 µM (inactive)	–
